The values that follow are results of earlier work, collected in the PKSmart pharmacokinetics tables (Seal et al. 2025).

The data set is described as follows: Lombardo, Berellini, Obach 2018, Drug Metab Dispos 46:1466, doi 10.1124/dmd.118.082966. The note with it: human; for MRT / Vd / clearance / half-life: in vivo, iv; for fraction unbound: plasma.

*1 amine or outer side, *2 acyl side, *3 side chain or, on linkers, in order; H or OH if unused. Where a SMILES comes first, the peptide text is derived from it. Bridges are numbered along the chain shown (N, C = ends). [ ]: non-standard residue; d: D form. The star is where a group is joined. ξ: configuration not given here. X1 = O=C1CC(C(=O)[*:2])N([*:1])CC1CS[C@@H]1CN2CCC1CC2; ξThr(3R)(O-yl) = C[C@@H](O[*:3])C(N[*:1])C(=O)[*:2]; ξNMePhe(4-NMe2) = CNC(Cc1ccc(N(C)C)cc1)C(=O)O; Picolinoyl(3-OH) = O=C(c1ncccc1O)*; ξPhg = NC(C(=O)O)c1ccccc1; ξAbu = CCC(N)C(=O)O; ξP = O=C(O)C1CCCN1

`CC[C@H]1OC(=O)C(C)[C@@H](O[C@H]2C[C@@](C)(OC)[C@@H](O)[C@H](C)O2)[C@H](C)[C@@H](O[C@@H]2O[C@H](C)C[C@H](N(C)C)[C@H]2O)[C@](C)(O)C[C@@H](C)CN(C)[C@H](C)[C@@H](O)[C@]1(C)O` (stereo not given in full): the MRT was 57 h, the Vd is 33 L/kg, the clearance is 0.6 L/h/kg and the half-life was 69 h.

In the case of `O=C(NC[C@H](O)CO)c1ccncc1Nc1ccc(I)cc1F`, the MRT is 3.55 h, the Vd was 1.8 L/kg, the clearance was 0.523 L/h/kg and the half-life was 4.59 h.

Take `CC(CN(C)C)CN1c2ccccc2CCc2ccccc21` (stereo not given): the MRT was 17 h, the Vd is 16 L/kg, the clearance was 0.96 L/h/kg and the half-life was 23 h. Also, the fraction unbound is 0.051.

As to `Cc1ncc([N+](=O)[O-])n1C[C@H](O)CCl`, the MRT was 18.1 h, the Vd is 1.16 L/kg, the clearance is 0.0648 L/h/kg and the half-life was 12 h. Besides, the fraction unbound was 0.88.

Regarding `CCCC=c1ncc(=CC(Cc2cccs2)C(=O)O)n1Cc1ccc(C(=O)O)cc1` (stereo not given), the MRT was 1.5 h, the Vd is 0.17 L/kg, the clearance was 0.114 L/h/kg and the half-life was 2.1 h.

For the compound `Cc1cc(O)c2c(=O)c3c(O)cc(O)c4c5c(O)cc(O)c6c(=O)c7c(O)cc(CO)c8c1c2c(c34)c(c65)c78`, the mean residence time (MRT) is 15 h, the Vd was 0.56 L/kg, the clearance was 0.0372 L/h/kg and the half-life is 20 h.

For `O=C1N=C(c2ccccc2Cl)c2cc(Cl)ccc2NC1O` (stereo not given), the MRT is 22 h, the distribution volume (Vd) is 1.3 L/kg, the clearance was 0.06 L/h/kg and the half-life was 17 h.

Regarding `CC(C)(O)c1ccccc1CC[C@@H](SCC1(CC(=O)O)CC1)c1cccc(/C=C/c2ccc3ccc(Cl)cc3n2)c1`, the MRT is 3.8 h, the Vd was 0.15 L/kg, the clearance is 0.0408 L/h/kg and the half-life was 5 h.

In the case of `CCOCCn1c(C2CCN(CCc3ccc(C(C)(C)C(=O)O)cc3)CC2)nc2ccccc21`, the mean residence time MRT is 3.56 h, the Vd is 0.61 L/kg, the clearance is 0.172 L/h/kg and the half-life was 5.16 h. Besides, the fraction unbound is 0.13.

With `C[C@H]1CN(CC(Cc2ccccc2)C(=O)NCC(=O)O)CC[C@@]1(C)c1cccc(O)c1` (stereo not given in full), the MRT is 1.24 h, the Vd was 0.43 L/kg, the clearance was 0.35 L/h/kg and the half-life is 5.3 h. The fraction unbound was 0.2.

Turning to `O=C(O)CCCC[C@@H]1CCSS1`, the MRT was 0.14 h, the Vd was 0.1 L/kg, the clearance was 0.69 L/h/kg and the half-life is 0.21 h.

Consider `CN(C)C(=O)Oc1cc(OC(=O)N(C)C)cc(C(O)CNC(C)(C)C)c1` (stereo not given), for which the MRT was 1.4 h, the Vd is 1.6 L/kg, the clearance was 1.08 L/h/kg and the half-life was 2.6 h.

As to `NC[C@H]1O[C@H](O[C@H]2[C@H](O[C@@H]3O[C@H](CO)[C@@H](O)[C@H]3O)[C@@H](O)[C@H](N)C[C@@H]2N)[C@H](N)[C@@H](O)[C@@H]1O`, the MRT was 2.8 h, the Vd is 0.25 L/kg, the clearance was 0.09 L/h/kg and the half-life is 2.5 h.

As for `NS(=O)(=O)OC[C@@H]1C[C@@H](n2ccc3c(N[C@H]4CCc5ccccc54)ncnc32)C[C@@H]1O`, the mean residence time MRT was 6.21 h, the Vd was 3.02 L/kg, the clearance is 0.486 L/h/kg and the half-life is 5.62 h.

`Nc1nc2ccc(OC(F)(F)F)cc2s1`: the mean residence time MRT was 5.2 h, the Vd is 3.5 L/kg, the clearance is 0.678 L/h/kg and the fraction unbound was 0.04.

`CCC1NC(=O)C(NC(=O)c2ncccc2O)[C@@H](C)OC(=O)C(c2ccccc2)NC(=O)C2CC(=O)C(CS[C@@H]3CN4CCC3CC4)CN2C(=O)C(Cc2ccc(N(C)C)cc2)N(C)C(=O)C2CCCN2C1=O` (stereo partly drawn) ({Picolinoyl(3-OH)}-[ξThr(3R)(O-yl)][ξAbu][ξP][ξNMePhe(4-NMe2)][X1][ξPhg]; ester 1-C): the MRT is 0.7 h, the Vd is 0.67 L/kg, the clearance was 0.96 L/h/kg and the half-life was 0.87 h. Further, the fraction unbound is 0.34.

Consider `CC(C(O)c1ccc(O)cc1)N1CCC(Cc2ccccc2)CC1` (stereo not given), for which the MRT was 4.9 h, the Vd was 19 L/kg, the clearance was 3.87 L/h/kg and the half-life was 4.32 h.

Turning to `N#C[C@@H](O[C@@H]1O[C@H](CO[C@@H]2O[C@H](CO)[C@@H](O)[C@H](O)[C@H]2O)[C@@H](O)[C@H](O)[C@H]1O)c1ccccc1`, the MRT was 1.83 h, the Vd is 0.21 L/kg, the clearance is 0.113 L/h/kg and the half-life is 1.23 h.

In the case of `CCc1c2c(nc3ccc(OC(=O)CCC(=O)Oc4c(C)c(C)c5c(c4C)CC[C@@](C)(CCC[C@H](C)CCC[C@H](C)CCCC(C)C)O5)cc13)-c1cc3c(c(=O)n1C2)COC(=O)[C@]3(O)CC`, the MRT was 3.34 h, the Vd was 0.15 L/kg, the clearance is 0.0486 L/h/kg and the half-life is 3.77 h.

With `CN1CCN2c3ncccc3Cc3ccccc3C2C1` (stereo not given), the MRT is 8.8 h, the Vd was 4.2 L/kg and the clearance is 0.48 L/h/kg.

Turning to `Cc1cc(OC[C@H](O)CNC(C)C)c(C)c(C)c1O`, the MRT is 3.7 h, the distribution volume (Vd) is 3.6 L/kg, the clearance is 0.972 L/h/kg and the half-life was 3.1 h.

Turning to `CC1(C)S[C@@H]2C(/N=C/N3CCCCCC3)C(=O)N2C1C(=O)O` (stereo not given in full), the MRT was 1 h, the Vd was 0.37 L/kg, the clearance is 0.378 L/h/kg and the half-life was 1.1 h. Moreover, the fraction unbound is 0.9.

For `CC(C)OC(=O)CCC/C=C/C[C@@H]1[C@@H](CC[C@@H](O)CCc2ccccc2)[C@H](O)C[C@@H]1O`, the clearance is 0.402 L/h/kg, the half-life was 0.28 h and the fraction unbound is 0.1.

For the compound `Cc1c(Cl)cccc1Nc1ccccc1C(=O)O`, the MRT is 1.13 h, the Vd is 0.16 L/kg, the clearance was 0.142 L/h/kg and the half-life is 2.15 h. The fraction unbound is 0.003.

For the compound `CON=C(C(=O)NC1C(=O)N2C(C(=O)O)=C(CSc3cnns3)CS[C@H]12)c1csc(N)n1` (stereo not given in full), the MRT is 0.82 h, the Vd was 0.2 L/kg, the clearance was 0.246 L/h/kg and the half-life is 1.14 h. For the same compound, the fraction unbound is 0.12.

On to `CN(C)C(=O)CCS[C@H](SCCC(=O)O)c1cccc(/C=C/c2ccc3ccc(Cl)cc3n2)c1`, for which the MRT was 2.7 h, the Vd was 0.11 L/kg, the clearance was 0.0408 L/h/kg and the half-life is 2.3 h. The fraction unbound was 0.0004.

For the compound `CNC(=O)N(N(CCCl)S(C)(=O)=O)S(C)(=O)=O`, the MRT was 0.63 h, the Vd was 0.88 L/kg, the clearance was 1.39 L/h/kg and the half-life is 0.49 h.

Turning to `CCN(CC)c1ccc2cc(C(=O)Nc3ccc4[nH]c(C(=O)N5C[C@@H](CCl)c6c5cc(OC(=O)Nc5ccccc5)c5[nH]cc(C)c65)cc4c3)oc2c1`, the MRT was 0.51 h, the distribution volume (Vd) is 0.09 L/kg, the clearance was 0.174 L/h/kg and the half-life is 0.48 h.

As for `Cn1nnnc1SCC1=C(C(=O)O)N2C(=O)C(=NC(=O)C(NOCC(=O)O)c3cc[nH]n3)[C@H]2SC1` (stereo not given in full), the mean residence time MRT was 1.8 h, the Vd was 0.22 L/kg, the clearance is 0.11 L/h/kg and the half-life is 1.33 h.

For `O=C1NC(=O)C(c2ccccc2)(c2ccccc2)N1`, the MRT was 17.6 h, the Vd was 0.43 L/kg, the clearance was 0.0222 L/h/kg and the half-life was 16.8 h. Also, the fraction unbound was 0.13.

On to `[H]/N=C(\N)c1cccc(CC(C(=O)OC)[C@@H](C)NC(=O)c2ccc(-c3cc[n+]([O-])cc3)cc2)c1` (stereo not given in full), for which the MRT is 2.02 h, the Vd is 0.89 L/kg, the clearance is 0.443 L/h/kg and the half-life was 3 h.

For the compound `C=CC(=O)N1CCCC(n2nc(-c3ccc(Oc4ccccc4)cc3)c3c(N)ncnc32)C1` (stereo not given), the fraction unbound is 0.03.

Take `Cc1nnc(C(C)C)n1C1C[C@H]2CC[C@@H](C1)N2CC[C@@H](NC(=O)C1CCC(F)(F)CC1)c1ccccc1` (stereo not given in full): the MRT is 4.2 h and the half-life is 12.8 h.
